Values of other authors, collected in patent publication US9657007B2, “Substituted aminopyrimidine compounds and methods of use” (Calitor Sciences, LLC, priority 2013, dated 2017).

Experiments:
PI3Kδ = conditions: potency range in words
[1] = test system: murine model of asthma using ovalbumin-induced airway inflammation
[2] = test system: mouse model of rheumatoid arthritis; conditions: in vivo
[3] = test system: model of systemic lupus erythematosis; conditions: in vivo

**Q.** Which “inhibits PI3Kδ” value (PI3Kδ) does the source give for `Cc1ccccc1-n1c(Cn2cnc3c(N)ncnc32)nc2cccc(C)c2c1=O` [IC87114] here?
**A.** The value was “high nanomolar range (triple digit)”.

**Q.** And the “inflammation and disease in a murine model of asthma” value [1]?
**A.** Its value is “significantly ameliorate inflammation and disease”.

**Q.** What about the “activity against any protein kinases tested” value (protein kinases) of the same compound?
**A.** Its value is “no activity”.

**Q.** Which “efficacy in a mouse model of rheumatoid arthritis” value [2] does the source give for `O=C1NC(=O)/C(=C\c2ccc3nccnc3c2)S1` [AS 605240] here?
**A.** Its value is “efficacious”.

**Q.** What about the “onset of disease in a model of systemic lupus erythematosis” value [3] of the same compound?
**A.** The value was “delay onset of disease”.
